Measured values from patent US11161885B2, “Antimicrobial protein” (CONSUMO EM VERDE—BIOTECNOLOGIA DAS PLANTAS, S.A., priority 2010, dated 2021).

How the values were obtained:
Format in all cases: cell-based
Candida albicans [1] = test: Time-kill curve and growth curve for BLAD and/or EDTA; conditions: EDTA at 0.1 mg/ml alone
Procedure: (§1) • MIC—Minimum Inhibitory Concentration: the lowest concentration of an antimicrobial that inhibits the visible growth of a microorganism. • MFC/MBC—Minimum Fungicidal/Bactericidal Concentration (or Minimal Lethal Concentration): the lowest concentration of an antimicrobial agent needed to kill 99.9% of the initial inoculum after 24 h under a standardized set of conditions. • Time-kill curves—Determination of the “killing” of an isolate over time by one or more antimicrobial agents under controlled conditions is known as the time-kill method. It is a broth based method where the rate of killing of a fixed inoculum is determined by sampling control (organism, no drug) and antimicrobial agent-containing tubes or flasks, at certain time intervals, and determining the survivor colony count (cfu/ml) by spreading each sample onto an agar plate.
(§2) Time-kill curves for BLAD and/or EDTA with (A) Listeria monocytogenes, (B) Pseudomonas aeruginosa and (C) Candida albicans: see FIG. 9.

Listeria monocytogenes = test: Time-kill curves for BLAD and/or EDTA; conditions: EDTA at 0.1 mg/ml alone
Procedure: as §1, §2

Pseudomonas aeruginosa = test: Time-kill curves for BLAD and/or EDTA; conditions: EDTA at 1 mg/ml alone
Procedure: as §1, §2

Candida albicans [2] = test: Growth curve in PDB pH 7 medium
Source text: Growth curve for BLAD with Candida albicans in PDB pH 7 medium: see FIG. 4.

O=C(O)CN(CCN(CC(=O)O)CC(=O)O)CC(=O)O [EDTA, ethylenediaminetetraacetic acid]
activity in time-kill curve (Candida albicans [1]): fungistatic | activity in time-kill curve (Listeria monocytogenes): neither BLAD at 10 μg/ml nor EDTA at 0.1 mg/ml inhibits growth | activity in time-kill curve (Pseudomonas aeruginosa): bacteriostatic

C[C@@H]1[C@H](O)[C@@H](C)/C=C/C=C/C=C/C=C/C=C/C=C/C=C/[C@H](O[C@@H]2O[C@H](C)[C@@H](O)[C@H](N)[C@@H]2O)C[C@@H]2O[C@](O)(C[C@@H](O)C[C@@H](O)[C@H](O)CC[C@@H](O)C[C@@H](O)CC(=O)O[C@H]1C)C[C@H](O)[C@H]2C(=O)O [amphotericin B]
activity in growth curve (Candida albicans [2]; 10 μg/ml): fungistatic

OC(Cn1cncn1)(Cn1cncn1)c1ccc(F)cc1F [fluconazole]
activity in growth curve (Candida albicans [2]; 100 μg/ml): merely delays growth
